The source of these data is publication PMC11859419, “New UB006 Derivatives With Higher Solubility and Cytotoxic Activity in Ovarian Cancer Cells” (Pharmaceuticals, 2025).

Converted amounts (≈) assume the structure as drawn. Like-named read-outs stand apart in the source and are kept apart here. Where only a bound is given, the exact number is not on record here.

One series deals with OVCAR-3 cell line. The series can be described thus: MTT cytotoxicity assay in OVCAR-3 ovarian cancer cells. The class given is cell-based, human. The following applies: for IC50: Homo sapiens, OVCAR-3, 72 h incubation, MTT, mean ± SEM of three experiments; for Fold increase in cytotoxicity compared with (±)-UB006: OVCAR-3, ratio of IC50 values. The protocol:
OVCAR-3 (human ovary carcinoma, ATC HTB-161, passage number 20) cells were cultured at 37 °C in a humidified atmosphere of 5% CO2 in Dulbecco’s Modified Eagle Medium containing 4.5 g/L of glucose and supplemented with glutamine, 10% heat-inactivated fetal bovine serum, 100 units/mL of penicillin, and […] of streptomycin. The culture was passaged twice a week through gentle trypsinization. Cells were seeded in 10 cm culture dishes and grown to confluence. An MTT cytotoxicity assay was performed to evaluate the cytotoxic effect of the compounds. A total of 2 × 10^3 cells/well were plated in 96-well plates in […] of culture medium. After 24 h, the medium was removed, and cells were incubated for 72 h in fresh medium with different concentrations (0.5–20 µM) of the different compounds. DMSO was used as a blank at a final concentration of 0.5%. The cells were then incubated for 3 h with […] of fresh medium and […] of MTT dissolved in phosphate-buffered saline to a final concentration of 5 mg/mL. Following treatment, the supernatants were carefully removed, and the MTT–formazan crystals were solubilized by adding […] of DMSO. The absorbance was measured at 570 nm.
Samples were incubated for 3 days with increasing concentrations of the different compounds, followed by an MTT assay to quantify cell survival.
In general terms: Formazan colour is commonly taken as a measure of viable cells.

Series [1] in a line: Turbidimetry solubility assay. The class given is physicochemical. The settings on record: for solubility at 2 h: kinetic from dmso stock, 2 h at 37 °C, tested 25 μM–2 mM; for Solubility over tested concentrations: tested concentrations 25–2000 µM. On the procedure:
This effectively created two regression lines, with the intersection corresponding to the solubility of the compound.
The compounds were incubated for 2 h at 37 °C in a Thermoshaker (Biosan®, Riga, Latvia). Solubility was assessed through turbidimetry at 600 nm using Varioskan Lux® (Thermo Scientific®, Waltham, MA, USA). The approximate solubility was calculated by finding the intersection of the two regression lines formed before and after the curve tendency change due to precipitation of the compounds.

In series [2] the target is T1, FAS (Rattus norvegicus, UniProt P12785).
T1 construct: Cytosolic hepatic extracts obtained from rat (210 µg) were preincubated at 30 °C for 30 min; from tissue; host or cells: rat liver (cytosolic, FAS-enriched hepatic extract)
The series can be described thus: Spectrophotometric FAS activity assay in rat liver extracts. The class given is biochemical. The settings on record: rat liver extracts (210 µg), preincubated 30 min at 30 °C, mean ± SEM of three experiments. On the procedure:
For in vitro experiments, FAS was purified from rat liver following the protocol previously described by Linn. FAS activity was measured using a spectrophotometric method, as previously described. […] NADPH (121 µM) and acetyl-CoA (61 µM) in potassium phosphate buffer (pH 7.2) were added to preincubated enzyme and equilibrated at 37 °C for 3 min. The reaction was initiated through the addition of malonyl-CoA (55 µM). The total reaction volume was 330 µL. Oxidation of NADPH was measured at 340 nm at 37 °C for 10 min.
Figure 3 FAS activity assay in rat liver extracts. Representation of % of remaining FAS activity of spectrophotometric activity assay.

Series [3] addresses T1, FAS. On the set-up: method as in PMID 23620264. The following applies: previously described by the group; read-out: IC50 (FAS inhibition); cited from earlier work.
Details of series [4]: method as in earlier work. The settings on record: cited from earlier work.

T1 sequence (P12785 whole entry): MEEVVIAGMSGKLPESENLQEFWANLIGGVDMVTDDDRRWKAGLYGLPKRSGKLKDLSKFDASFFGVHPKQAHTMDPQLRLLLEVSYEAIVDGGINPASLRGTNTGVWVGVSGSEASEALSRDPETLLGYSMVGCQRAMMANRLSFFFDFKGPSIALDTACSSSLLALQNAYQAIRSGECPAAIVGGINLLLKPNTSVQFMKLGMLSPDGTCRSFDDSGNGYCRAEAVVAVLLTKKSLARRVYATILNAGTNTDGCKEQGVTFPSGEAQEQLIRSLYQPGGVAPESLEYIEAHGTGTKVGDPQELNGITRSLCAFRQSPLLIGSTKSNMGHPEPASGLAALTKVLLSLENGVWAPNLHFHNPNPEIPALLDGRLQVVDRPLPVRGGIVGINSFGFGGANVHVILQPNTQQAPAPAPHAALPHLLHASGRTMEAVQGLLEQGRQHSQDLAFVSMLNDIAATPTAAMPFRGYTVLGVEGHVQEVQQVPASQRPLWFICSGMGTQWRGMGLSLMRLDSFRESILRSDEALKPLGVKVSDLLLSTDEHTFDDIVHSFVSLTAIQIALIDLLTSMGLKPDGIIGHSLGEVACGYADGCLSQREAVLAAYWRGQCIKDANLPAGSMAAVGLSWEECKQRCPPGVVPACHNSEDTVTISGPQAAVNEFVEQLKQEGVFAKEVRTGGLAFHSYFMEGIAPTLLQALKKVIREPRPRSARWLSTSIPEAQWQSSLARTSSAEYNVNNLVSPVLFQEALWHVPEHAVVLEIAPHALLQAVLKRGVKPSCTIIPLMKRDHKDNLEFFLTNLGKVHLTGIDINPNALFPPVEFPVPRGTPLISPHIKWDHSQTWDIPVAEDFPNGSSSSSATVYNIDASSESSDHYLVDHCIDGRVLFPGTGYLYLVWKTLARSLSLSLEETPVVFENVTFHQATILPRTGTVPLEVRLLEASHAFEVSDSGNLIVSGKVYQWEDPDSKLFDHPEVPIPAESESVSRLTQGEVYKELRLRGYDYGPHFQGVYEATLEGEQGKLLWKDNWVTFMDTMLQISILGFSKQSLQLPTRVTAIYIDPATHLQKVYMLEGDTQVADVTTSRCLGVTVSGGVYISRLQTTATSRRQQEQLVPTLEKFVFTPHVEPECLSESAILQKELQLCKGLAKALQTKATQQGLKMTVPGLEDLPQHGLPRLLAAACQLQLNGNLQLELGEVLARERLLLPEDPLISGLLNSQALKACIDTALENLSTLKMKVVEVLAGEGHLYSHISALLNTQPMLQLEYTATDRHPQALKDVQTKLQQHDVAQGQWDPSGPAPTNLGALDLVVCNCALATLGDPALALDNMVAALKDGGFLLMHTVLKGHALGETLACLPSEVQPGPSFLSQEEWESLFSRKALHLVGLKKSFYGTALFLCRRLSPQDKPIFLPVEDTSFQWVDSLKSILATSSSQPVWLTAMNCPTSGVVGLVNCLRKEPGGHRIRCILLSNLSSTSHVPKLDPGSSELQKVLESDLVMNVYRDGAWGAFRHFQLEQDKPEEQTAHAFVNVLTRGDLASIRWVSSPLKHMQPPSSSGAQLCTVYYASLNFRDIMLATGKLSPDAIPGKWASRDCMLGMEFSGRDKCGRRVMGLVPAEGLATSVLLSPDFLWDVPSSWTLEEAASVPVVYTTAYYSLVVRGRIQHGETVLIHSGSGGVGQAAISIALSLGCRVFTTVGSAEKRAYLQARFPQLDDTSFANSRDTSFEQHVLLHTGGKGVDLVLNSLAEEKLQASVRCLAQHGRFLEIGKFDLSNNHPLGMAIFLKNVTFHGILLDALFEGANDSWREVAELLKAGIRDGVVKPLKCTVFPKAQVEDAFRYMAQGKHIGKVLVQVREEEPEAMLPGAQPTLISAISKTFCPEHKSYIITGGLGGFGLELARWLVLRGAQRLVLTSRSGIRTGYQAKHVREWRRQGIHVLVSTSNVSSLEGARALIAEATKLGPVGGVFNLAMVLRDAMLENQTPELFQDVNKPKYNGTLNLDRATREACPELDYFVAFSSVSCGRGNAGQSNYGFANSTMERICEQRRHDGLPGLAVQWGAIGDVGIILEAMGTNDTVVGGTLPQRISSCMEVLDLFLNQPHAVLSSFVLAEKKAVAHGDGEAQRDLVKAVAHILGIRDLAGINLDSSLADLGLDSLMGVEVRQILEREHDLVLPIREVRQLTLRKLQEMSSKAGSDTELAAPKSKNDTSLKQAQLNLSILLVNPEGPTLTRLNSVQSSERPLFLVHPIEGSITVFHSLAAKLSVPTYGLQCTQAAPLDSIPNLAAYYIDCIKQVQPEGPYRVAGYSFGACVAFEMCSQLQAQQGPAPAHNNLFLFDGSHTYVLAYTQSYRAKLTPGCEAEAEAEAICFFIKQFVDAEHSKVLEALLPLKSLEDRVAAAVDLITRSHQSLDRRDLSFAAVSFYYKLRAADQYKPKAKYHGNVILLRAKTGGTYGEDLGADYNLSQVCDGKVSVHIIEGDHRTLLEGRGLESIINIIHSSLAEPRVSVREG

In the series on OVCAR-3 cell line, `C=C1C(=O)O[C@@H](CCCCCCCC)[C@H]1C(O)C(O)CO` (mixture of isomers) [(±)-UB036, (4RS,5SR)-3-methylene-5-octyl-4-(1,2,3-trihydroxypropyl)dihydrofuran-2(3H)-one] came in with a 50% inhibitory concentration (IC50) of 5.5 ± 0.8 µM. In addition, in series [1] (water with 1% DMSO), the solubility at 2 h was more than 2000 µM and the “Fold increase in solubility compared with (±)-UB006” value is not below 4 fold. Also, the “Solubility over tested concentrations” value in series [1] is on record as “soluble at all tested concentrations”. On FAS [2], this compound came in with a half-inhibitory concentration (IC50) of 458 ± 54 µM.
For `C=C1C(=O)O[C@@H](CCCCCCCC)[C@@H]1C(=O)O` (racemic) [(±)-C75], the IC50 on FAS [3] is 460 ± 56 µM. The “Solubility in basic aqueous media” value in series [4] (basic aqueous media) was less than 100 µg/mL. Besides, in series [4] (water), the Solubility in water result is recorded as “insoluble in water”.
`C=C1C(=O)O[C@@H](CCCCCCCC)[C@H]1C(O)CC` (mixture of isomers) [(±)-UB032, (4RS,5SR)-4-(1-hydroxypropyl)-3-methylene-5-octyldihydrofuran-2(3H)-one] gave a half-inhibitory concentration (IC50) in the series on OVCAR-3 cell line of 10.7 ± 0.9 µM. Also, the concentration in solution in series [1] (water with 1% DMSO) (solubility at 2 h) came to 390 µM (≈ 105 µg/mL).
`C=CC(O)[C@H]1C(=C)C(=O)O[C@H]1CCCCCCCC` (mixture of isomers) [(±)-UB034, (4RS,5SR)-4-(1-hydroxyallyl)-3-methylene-5-octyldihydrofuran-2(3H)-one] yielded a concentration for half-maximal inhibition (IC50) with OVCAR-3 cell line of 12.3 ± 1.2 µM. In series [1] (water with 1% DMSO), this compound gave a solubility at 2 h of 88 µM (≈ 23.4 µg/mL).
Turning to `C=C1C(=O)O[C@@H](CCCCCCCC)[C@H]1C(C)O` (mixture of isomers) [(±)-UB031, (4RS,5SR)-4-(1-hydroxyethyl)-3-methylene-5-octyldihydrofuran-2(3H)-one], in the series with OVCAR-3 cell line, the IC50 stood at 3.6 ± 0.2 µM and the “Fold increase in cytotoxicity compared with (±)-UB006” value came out at 1.4 fold. The compound also showed a solubility at 2 h in series [1] (water with 1% DMSO) of 473 µM (≈ 120 µg/mL).
On to `C=C1C(=O)O[C@@H](CCCCCCCC)[C@@H]1CO` (racemic) [(±)-UB006, (4SR,5SR)-4-(hydroxymethyl)-3-methylene-5-octyldihydrofuran-2(3H)-one], for which the concentration in solution in series [1] (water with 1% DMSO) (solubility at 2 h) came to 550 µM (≈ 132 µg/mL).
In turn, `C=C1C(=O)O[C@@H](CCCCCCCC)[C@H]1C(O)CCCCCC` (mixture of isomers) [(±)-UB033, (4RS,5SR)-4-(1-hydroxyheptyl)-3-methylene-5-octyldihydrofuran-2(3H)-one] showed an IC50 in the series with OVCAR-3 cell line of 13.6 ± 1.3 µM. Also, the solubility at 2 h in series [1] (water with 1% DMSO) turned out to be 76 µM (≈ 24.7 µg/mL).
`C=C1C(=O)O[C@@H](CCCCCCCC)[C@H]1[C@@H](O)CO` (racemic) [(±)-UB035, (4RS,5SR)-4-((RS)-1,2-dihydroxyethyl)-3-methylene-5-octyldihydrofuran-2(3H)-one]: in the series on OVCAR-3 cell line, half-maximal inhibition (IC50) required 2.1 ± 0.2 µM and the “Fold increase in cytotoxicity compared with (±)-UB006” value was 2.5 fold. In series [1] (water with 1% DMSO), this compound showed a solubility at 2 h of more than 2000 µM. For the same compound, the “Solubility over tested concentrations” value in series [1] was “soluble at all tested concentrations”. Also, at FAS [2], the IC50 was found to be 565 ± 62 µM.

One may read the IC50 as the concentration that inhibits the measured activity by half. As a reminder, the solubility is the dissolved amount per volume that the medium holds.
